# Assay results as given in US8518944B2, “Compounds as casein kinase inhibitors” (Pfizer Inc., priority 2009, dated 2013).
# Where a name gives a salt, the structure may show the parent alone.
# Key:
# CK1δ = CK1δ (Homo sapiens, UniProt P48730); assay: CK1δ kinase assay (Kinase-Glo luminescence); format: biochemical; conditions: ATP 10 μM, CK1δ enzyme 2 nM, peptide substrate 42 μM, 25° C., 85 minutes; values marked * are geometric mean of 5-16 determinations; read-out: CKIδ IC50 (nM), geometric mean of 2-4 determinations
# Description: The CK1δ kinase assay was performed in a standard buffer containing ATP at 10 μM, CK1δ enzyme at 2 nM, and the peptide substrate PLSRTLpSVASLPGL at 42 μM. The reaction was incubated at 25° C. for 85 minutes. Enzyme inhibition was performed in the presence of either 1 μL of CK1δ inhibitor, or 4% DMSO. Detection of luminescent output on a PerkinElmer EnVision plate reader (PerkinElmer, Waltham, Mass.) was performed as described for the Kinase-Glo Assay (Promega).
# CK1ε wild type enzyme = CK1ε wild type enzyme (Homo sapiens, UniProt P49674); assay: CK1ε kinase assay (Kinase-Glo luminescence); format: biochemical; conditions: ATP 10 μM, CK1ε wild type enzyme 2.5 nM, peptide substrate 42 μM, 25° C., 70 minutes; values marked * are geometric mean of 5-16 determinations; read-out: CKIε IC50 (nM), geometric mean of 2-4 determinations
# Description: The CK1ε kinase assay was performed in a standard buffer containing ATP at 10 μM, CK1ε wild type enzyme at 2.5 nM, and 42 μM concentration of the peptide substrate PLSRTLpSVASLPGL (Flotow et al., 1990). The reaction was incubated at 25° C. for 70 minutes. Enzyme inhibition was measured in the presence of 1 μL of the CK1ε inhibitor, or 4% DMSO. Detection was carried out as described for the Kinase-Glo Assay (Promega). Luminescent output was measured on the PerkinElmer EnVision plate reader (PerkinElmer, Waltham, Mass.).
# Sequence of CK1ε wild type enzyme (P49674 whole entry): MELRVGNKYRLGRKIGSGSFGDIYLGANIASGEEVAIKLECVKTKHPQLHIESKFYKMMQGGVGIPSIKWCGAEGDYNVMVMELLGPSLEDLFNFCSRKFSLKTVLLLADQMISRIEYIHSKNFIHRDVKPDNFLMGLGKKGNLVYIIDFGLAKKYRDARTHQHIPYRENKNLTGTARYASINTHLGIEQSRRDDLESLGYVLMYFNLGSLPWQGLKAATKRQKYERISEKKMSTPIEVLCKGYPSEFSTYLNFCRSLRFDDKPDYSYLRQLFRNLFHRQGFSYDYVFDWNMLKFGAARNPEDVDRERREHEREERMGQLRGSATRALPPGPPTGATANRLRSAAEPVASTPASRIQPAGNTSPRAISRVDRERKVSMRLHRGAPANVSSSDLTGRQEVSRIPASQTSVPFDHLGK
# Sequence of CK1δ (P48730 whole entry): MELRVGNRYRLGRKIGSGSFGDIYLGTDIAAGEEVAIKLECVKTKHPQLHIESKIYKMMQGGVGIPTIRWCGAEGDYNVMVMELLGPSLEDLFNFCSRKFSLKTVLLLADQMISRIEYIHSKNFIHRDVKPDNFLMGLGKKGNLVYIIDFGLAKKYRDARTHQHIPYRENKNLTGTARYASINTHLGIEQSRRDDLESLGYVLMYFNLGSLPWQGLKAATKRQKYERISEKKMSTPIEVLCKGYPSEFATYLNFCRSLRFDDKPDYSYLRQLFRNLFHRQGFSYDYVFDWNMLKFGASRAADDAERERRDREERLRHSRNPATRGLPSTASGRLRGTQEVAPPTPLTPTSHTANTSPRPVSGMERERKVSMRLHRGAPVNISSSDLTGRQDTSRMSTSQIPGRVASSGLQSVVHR
IC50 (CK1δ) [nM],IC50 (CK1ε wild type enzyme) [nM],SMILES
8.22,40.9,"Nc1nccc(-c2c(-c3ccccc3)ncn2C2CCN(Cc3ccon3)CC2)n1 [Example 13, 4-{1-[1-(Isoxazol-3-ylmethyl)piperidin-4-yl]-4-phenyl-1H-imidazol-5-yl}pyrimidin-2-amine, hydrochloride salt]"
140,829,"Cc1nc(-c2ccc(F)cc2)c(-c2ccncn2)n1C1CCN(Cc2ccon2)CC1 [Example 14, 4-{4-(4-Fluorophenyl)-1-[1-(isoxazol-3-ylmethyl)piperidin-4-yl]-2-methyl-1H-imidazol-5-yl}pyrimidine]"
18.6,76.1,"CNc1nccc(-c2c(-c3ccccc3)ncn2C2CCN(Cc3ccon3)CC2)n1 [Example 15, 4-{1-[1-(isoxazol-3-ylmethyl)piperidin-4-yl]-4-phenyl-1H-imidazol-5-yl}-N-methylpyrimidin-2-amine, hydrochloride salt]"
42.8,327,"c1ccc(-c2ncn(C3CCN(Cc4ccon4)CC3)c2-c2ccncn2)cc1 [Example 16, 4-{1-[1-(isoxazol-3-ylmethyl)piperidin-4-yl]-4-phenyl-1H-imidazol-5-yl}pyrimidine]"
32.1,144,"Cc1nc2ccccc2nc1CN1CCC(n2cnc(-c3ccc(F)cc3)c2-c2ccnc(N)n2)CC1 [Example 17, 4-[4-(4-fIuorophenyl)-1-{1-[(3-methylquinoxalin-2-yl)methyl]piperidin-4-yl}-1H-imidazol-5-yl]pyrimidin-2-amine, trifluoroacetate salt]"
80.7,394,"Nc1nccc(-c2c(-c3ccc(F)cc3)ncn2C2CCN(Cc3ccc(C(F)(F)F)nc3)CC2)n1 [Example 18, 4-[4-(4-fluorophenyl)-1-(1-{[6-(trifluoromethyl)pyridin-3-yl]methyl}piperidin-4-yl)-1H-imidazol-5-yl]pyrimidin-2-amine, trifluoroacetate salt]"
26.8,99.9,"Nc1nccc(-c2c(-c3ccc(F)cc3)ncn2C2CCN(Cc3cncs3)CC2)n1 [Example 19, 4-{4-(4-fluorophenyl)-1-[1-(1,3-thiazol-5-ylmethyl)piperidin-4-yl]-1H-imidazol-5-yl}pyrimidin-2-amine, trifluoroacetate salt]"
42.8,244,"Cn1nccc1CN1CCC(n2cnc(-c3ccc(F)cc3)c2-c2ccnc(N)n2)CC1 [Example 20, 4-[4-(4-fluorophenyl)-1-{1-[(1-methyl-1H-pyrazol-5-yl)methyl]piperidin-4-yl}-1H-imidazol-5-yl]pyrimidin-2-amine, trifluoroacetate salt]"
13,59.8,"Cc1cc(CN2CCC(n3cnc(-c4ccc(F)cc4)c3-c3ccnc(N)n3)CC2)ccn1 [Example 21, 4-[4-(4-fluorophenyl)-1-{1-[(2-methylpyridin-4-yl)methyl]piperidin-4-yl}-1H-imidazol-5-yl]pyrimidin-2-amine, trifluoroacetate salt]"
83.6,482,"COc1ccc(CN2CCC(n3cnc(-c4ccc(F)cc4)c3-c3ccnc(N)n3)CC2)cn1 [Example 22, 4-[4-(4-fluorophenyl)-1-{1-[(6-methoxypyridin-3-yl)methyl]piperidin-4-yl}-1H-imidazol-5-yl]pyrimidin-2-amine, trifluoroacetate salt]"
8.51,34.8,"Nc1nccc(-c2c(-c3ccc(F)cc3)ncn2C2CCN(Cc3ccnnc3)CC2)n1 [Example 23, 4-{4-(4-fluorophenyl)-1-[1-(pyridazin-4-ylmethyl)piperidin-4-yl]-1H-imidazol-5-yl}pyrimidin-2-amine, trifluoroacetate salt]"
83.7,382,"CCc1csc(CN2CCC(n3cnc(-c4ccc(F)cc4)c3-c3ccnc(N)n3)CC2)n1 [Example 24, 4-[1-{1-[(4-ethyl-1,3-thiazol-2-yl)methyl]piperidin-4-yl}-4-(4-fluorophenyl)-1H-imidazol-5-yl]pyrimidin-2-amine, trifluoroacetate salt]"

# The next lines start with the molecule.
SMILES,IC50 (CK1δ) [nM],IC50 (CK1ε wild type enzyme) [nM]
"C[C@H](c1ccon1)N1CCC(n2cnc(-c3ccc(F)cc3)c2-c2ccncn2)CC1 (single isomer, unassigned) [Example 9]",281,1360
"C[C@@H](c1ccon1)N1CCC(n2cnc(-c3ccc(F)cc3)c2-c2ccncn2)CC1 (single isomer, unassigned) [Example 10]",64.6,277
"Nc1nccc(-c2c(-c3ccc(F)cc3)ncn2C2CN(Cc3ncccn3)C2)n1 [Example 1, 4-{4-(4-Fluorophenyl)-1-[1-(pyrimidin-2-ylmethyl)azetidin-3-yl]-1H-imidazol-5-yl}pyrimidin-2-amine]",163,536
"CNc1nccc(-c2c(-c3ccc(F)cc3)ncn2C2CCN(C(C)c3ccon3)CC2)n1 (stereo not drawn) [Example 2, 4-{4-(4-Fluorophenyl)-1-[1-(1-isoxazol-3-ylethyl)piperidin-4-yl]-1H-imidazol-5-yl}-N-methylpyrimidin-2-amine]",16.7,67.4
"Nc1nccc(-c2c(-c3ccc(F)cc3)ncn2C2CCN(Cc3ncccn3)CC2)n1 [Example 3, 4-{4-(4-Fluorophenyl)-1-[1-(pyrimidin-2-ylmethyl)piperidin-4-yl]-1H-imidazol-5-yl}pyrimidin-2-amine]",27.8,116
"Nc1nccc(-c2c(-c3ccc(F)cc3)ncn2C2CCN(Cc3ccon3)CC2)n1 [Example 4, 4-{4-(4-Fluorophenyl)-1-[1-(isoxazol-3-ylmethyl)piperidin-4-yl]-1H-imidazol-5-yl}pyrimidin-2-amine]",< 4.17,18.9
"CNc1nccc(-c2c(-c3ccc(F)cc3)ncn2C2CCN(Cc3ccon3)CC2)n1 [Example 5, 4-{4-(4-Fluorophenyl)-1-[1-(isoxazol-3-ylmethyl)piperidin-4-yl]-1H-imidazol-5-yl}-N-methylpyrimidin-2-amine]",6.86,32.3
"Fc1ccc(-c2ncn(C3CCN(Cc4ccon4)CC3)c2-c2ccncn2)cc1 [Example 6, 4-{4-(4-Fluorophenyl)-1-[1-(isoxazol-3-ylmethyl)piperidin-4-yl]-1H-imidazol-5-yl}pyrimidine, hydrochloride salt]",24,126
"Nc1nccc(-c2c(-c3ccc(F)cc3)ncn2C2CCN(Cc3ccon3)C2)n1 (stereo not drawn) [Example 7, 4-{4-(4-Fluorophenyl)-1-[1-(isoxazol-3-ylmethyl)pyrrolidin-3-yl]-1H-imidazol-5-yl}pyrimidin-2-amine]",67.8,193
"Fc1ccc(-c2ncn(C3CCN(Cc4ccon4)C3)c2-c2ccncn2)cc1 (stereo not drawn) [Example 8, 4-{4-(4-Fluorophenyl)-1-[1-(isoxazol-3-ylmethyl)pyrrolidin-3-yl]-1H-imidazol-5-yl}pyrimidine]",211,617
"c1ccc(-c2ncn(C3CCN(Cc4ncccn4)CC3)c2-c2ccncn2)cc1 [Example 11, 2-{[4-(4-Phenyl-5-pyrimidin-4-yl-1H-imidazol-1-yl)piperidin-1-yl]methyl}pyrimidine]",790,> 3660
"CNc1nccc(-c2c(-c3ccccc3)ncn2C2CCN(Cc3ncccn3)CC2)n1 [Example 12, N-Methyl-4-{4-phenyl-1-[1-(pyrimidin-2-ylmethyl)piperidin-4-yl]-1H-imidazol-5-yl}pyrimidin-2-amine]",191,660
